Assay results from patent US12469647B2, “Electrolytic capacitor” (Panasonic Intellectual Property Management Co., Ltd., priority 2020, dated 2025).

Assay: acid dissociation constant (pKa) of the conjugate acid of the base component
Conditions: water
Source text: The pKa of the conjugate acid of the base is the pKa of the cation of the base.

| pKa | Structure (SMILES) |
| --- | --- |
| 7.5 | CCCCN1CCOCC1 [N-butylmorpholine] |
| 9.5 | CC(C)CN(CC(C)C)CC(C)C [triisobutylamine] |

| Structure (SMILES) | pKa |
| --- | --- |
| CCCCNCCCC [dibutylamine] | 11.3 |
